Columns and labels:
Assay type in all cases: functional
[1] = molecular target: T1, Tyrosine-protein kinase SYK (Homo sapiens, UniProt P43405); test: Inhibitory activity against Syk C-terminal SH2.
[2] = molecular target: T1, Tyrosine-protein kinase SYK; test: Inhibitory activity against Syk C-terminal SH2 at 10 mM
[3] = molecular target: T1, Tyrosine-protein kinase SYK; test: Inhibitory activity against Syk C-terminal SH2 domain in in-silico screening
[4] = molecular target: T1, Tyrosine-protein kinase SYK; test: Inhibitory activity against Syk C-terminal SH2 (at 10 mM)

| IC50 [1] [µM] | SMILES | also measured |
| --- | --- | --- |
| 5900 | O=C(O)C(C(=O)O)C1CCCCC1 | – |
| 69 | CC(C)CCCCN(CCCCCC(=O)O)S(=O)(=O)/C=C/c1ccc(NC(=O)[C@H]2CC[C@H](C(C(=O)O)C(=O)O)CC2)cc1 | – |
| 7700 | O=C(O)C(C(=O)O)C1CC/C=C\CCC1 (stereo not given) | – |
| 71 | CC(C)CCCCN(CCCCCC(=O)O)S(=O)(=O)/C=C/c1ccc(NC(=O)C2CC=C(C(C(=O)O)C(=O)O)CC2)cc1 (stereo not given) | – |
| 350 | O=C(O)CCCCCNS(=O)(=O)/C=C/c1ccc(NC(=O)[C@H]2CC[C@H](C(C(=O)O)C(=O)O)CC2)cc1 | – |
| – | Nc1cccc2c(S(=O)(=O)NCC(=O)O)cccc12 | inhibition [2]: 39% |
| 41 | O=C(O)CCCCCN(CCCC1CCCCC1)S(=O)(=O)/C=C/c1ccc(NC(=O)C2CC=C(C(C(=O)O)C(=O)O)CC2)cc1 (stereo not given) | – |
| 12000 | O=C(O)C(C(=O)O)c1ccccc1 | – |
| 40 | O=C(O)CCCCCN(CCCC1CCCCC1)S(=O)(=O)/C=C/c1ccc(NC(=O)[C@H]2CC[C@@H](C(C(=O)O)C(=O)O)CC2)cc1 | – |
| – | O=C(O)CCCNS(=O)(=O)/C=C/c1ccccc1 | inhibition [2]: 2.3% |
| – | NC(Cc1ccc(CP(=O)(O)O)cc1)C(=O)O (stereo not given) | IC50 [3]: 14000 µM |
| 38 | O=C(O)CCCCCN(CCCC1CCCCC1)S(=O)(=O)/C=C/c1ccc(NC(=O)[C@H]2CC[C@H](C(C(=O)O)C(=O)O)CC2)cc1 | – |
| 63 | CC(C)CCCCN(CCCCCC(=O)O)S(=O)(=O)/C=C/c1ccc(NC(=O)[C@H]2CC[C@@H](C(C(=O)O)C(=O)O)CC2)cc1 | – |
| – | O=C(O)CCCCCNS(=O)(=O)/C=C/c1ccccc1 | IC50 [4]: 8000 µM |
| – | O=C(O)CCNS(=O)(=O)c1ccc(F)cc1 | inhibition [2]: 0.9% |

— ChEMBL document CHEMBL1134647, “Design and synthesis of non-peptidic inhibitors for the Syk C-terminal SH2 domain based on structure-based in-silico screening” (J Med Chem, 2001)
